Laboratory results taken from ChEMBL document CHEMBL2146395, “[¹⁸F]FE@SNAP-A new PET tracer for the melanin concentrating hormone receptor 1 (MCHR1): microfluidic and vessel-based approaches” (Bioorg Med Chem, 2012).
Calls of active or inactive are those of the source. The calls are words filed in the database; no cut-off is given here.

Key:
[1] = molecular target: T1, Melanin-concentrating hormone receptor 1 (Homo sapiens, UniProt Q99705); assay: Binding affinity to human MCHR1 expressed in COS7 cells; format: cell-based, COS-7
[2] = molecular target: T1, Melanin-concentrating hormone receptor 1; assay: Binding affinity to human MCHR1 expressed in CHO cell membranes; conditions: tested as the 18F-labelled form
[3] = tested on: carboxyl esterase; assay: Drug degradation after 6 hrs in presence of carboxyl esterase; format: physicochemical; conditions: read-out: Drug degradation
[4] = Drug degradation in human plasma up to 120 mins; format: ADME, cell-free; conditions: read-out: Drug degradation

T1 sequence (Q99705 whole entry): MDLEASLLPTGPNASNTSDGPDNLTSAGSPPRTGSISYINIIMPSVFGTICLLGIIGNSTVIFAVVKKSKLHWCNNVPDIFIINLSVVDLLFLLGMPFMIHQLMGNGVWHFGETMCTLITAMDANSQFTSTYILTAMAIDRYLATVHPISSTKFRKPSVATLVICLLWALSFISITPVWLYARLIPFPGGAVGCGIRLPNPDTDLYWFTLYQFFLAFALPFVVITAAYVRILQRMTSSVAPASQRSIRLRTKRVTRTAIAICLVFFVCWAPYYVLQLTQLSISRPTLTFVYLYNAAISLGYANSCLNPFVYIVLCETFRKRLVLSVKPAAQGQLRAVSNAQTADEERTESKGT

Structure (SMILES): COCC1=C(C(=O)OC)[C@H](c2ccc(F)c(F)c2)N(C(=O)NCCCN2CCC(c3cccc(NC(C)=O)c3)CC2)C(=O)N1
- Kd [1]: 0.18 nM

Structure (SMILES): COCC1=C(C(=O)OCCF)C(c2ccc(F)c(F)c2)N(C(=O)NCCCN2CCC(c3cccc(NC(C)=O)c3)CC2)C(=O)N1 (centres undefined)
- Activity [2]: Active

Structure (SMILES): COCC1=C(C(=O)OCC[18F])C(c2ccc(F)c(F)c2)N(C(=O)NCCCN2CCC(c3cccc(NC(C)=O)c3)CC2)C(=O)N1 (centres undefined)
- metabolised at 6 h [3]: 20%
- metabolised at 2 h [4]: < 5%
